Results reported in article PMC7265341, “Quantifying CDK inhibitor selectivity in live cells” (Nature Communications, 2020).
Where “and” joins values, the source holds several entries; their conditions need not be identical. Equal values may be shown once. Read-outs that look alike come from different tables or passages of the source.

Experiments:
[1] = biological target: CDK1/Cyclin E1 (Homo sapiens, UniProt P06493); test: NanoBRET live-cell target engagement, CDK1-NanoLuc/Cyclin E1 in HEK-293; assay type: binding; conditions: CDK1/E1; for IC50: read-out: IC50
CDK1/Cyclin E1, sequence (P06493 whole entry): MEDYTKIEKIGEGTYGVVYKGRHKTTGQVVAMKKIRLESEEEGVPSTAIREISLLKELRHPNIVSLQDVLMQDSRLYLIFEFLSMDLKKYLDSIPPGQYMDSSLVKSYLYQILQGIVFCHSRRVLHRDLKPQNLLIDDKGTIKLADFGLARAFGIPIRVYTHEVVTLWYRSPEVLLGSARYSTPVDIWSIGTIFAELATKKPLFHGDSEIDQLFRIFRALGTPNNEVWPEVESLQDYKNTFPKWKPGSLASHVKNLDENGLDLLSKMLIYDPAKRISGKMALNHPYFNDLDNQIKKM
CDK1/Cyclin E1, sequence (P24864 whole entry partner): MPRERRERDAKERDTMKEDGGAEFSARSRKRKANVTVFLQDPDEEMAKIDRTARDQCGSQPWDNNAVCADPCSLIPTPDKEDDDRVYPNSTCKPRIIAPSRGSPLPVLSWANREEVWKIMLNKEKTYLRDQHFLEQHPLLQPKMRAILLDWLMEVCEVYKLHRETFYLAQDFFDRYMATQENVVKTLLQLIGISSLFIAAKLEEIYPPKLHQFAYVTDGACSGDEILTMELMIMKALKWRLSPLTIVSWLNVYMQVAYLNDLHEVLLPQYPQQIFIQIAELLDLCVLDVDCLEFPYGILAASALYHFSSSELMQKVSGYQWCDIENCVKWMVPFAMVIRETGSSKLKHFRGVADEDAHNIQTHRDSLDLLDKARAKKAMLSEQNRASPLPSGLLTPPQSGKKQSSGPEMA

[2] = biological target: CDK2/Cyclin E1 (Homo sapiens, UniProt P24941); test: NanoBRET live-cell target engagement, CDK2-NanoLuc/Cyclin E1 in HEK-293; assay type: binding; conditions: 10 µM
[3] = biological target: CDK4/Cyclin D1 (Homo sapiens, UniProt P11802); test: NanoBRET live-cell target engagement, NanoLuc-CDK4/Cyclin D1 in HEK-293; assay type: binding; conditions: CDK4/D1; for IC50: read-out: IC50
CDK4/Cyclin D1, sequence (P11802 whole entry): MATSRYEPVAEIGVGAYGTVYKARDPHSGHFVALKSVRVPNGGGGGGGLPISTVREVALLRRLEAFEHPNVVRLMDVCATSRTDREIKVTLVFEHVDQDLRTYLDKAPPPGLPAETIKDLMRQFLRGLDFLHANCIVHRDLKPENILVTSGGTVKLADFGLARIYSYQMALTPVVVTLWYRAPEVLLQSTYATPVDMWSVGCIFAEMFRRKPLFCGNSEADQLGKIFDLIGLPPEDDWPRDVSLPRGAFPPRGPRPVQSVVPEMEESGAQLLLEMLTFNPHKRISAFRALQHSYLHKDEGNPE
CDK4/Cyclin D1, sequence (P24385 whole entry partner): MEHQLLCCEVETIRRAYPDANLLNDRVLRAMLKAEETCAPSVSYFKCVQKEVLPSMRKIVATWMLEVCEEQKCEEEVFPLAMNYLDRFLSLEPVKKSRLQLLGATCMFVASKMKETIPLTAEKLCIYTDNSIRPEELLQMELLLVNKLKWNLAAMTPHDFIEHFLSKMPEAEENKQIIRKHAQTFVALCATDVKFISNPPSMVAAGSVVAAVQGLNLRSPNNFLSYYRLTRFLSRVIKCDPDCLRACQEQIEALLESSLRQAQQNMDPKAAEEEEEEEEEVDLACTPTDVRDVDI

[4] = biological target: CDK5/CDK5R1 (Homo sapiens, UniProt Q00535); test: NanoBRET live-cell target engagement, CDK5-NanoLuc/CDK5R1 in HEK-293; assay type: binding; conditions: CDK5/CDK5R1; for IC50: read-out: IC50
CDK5/CDK5R1, sequence (Q00535 whole entry): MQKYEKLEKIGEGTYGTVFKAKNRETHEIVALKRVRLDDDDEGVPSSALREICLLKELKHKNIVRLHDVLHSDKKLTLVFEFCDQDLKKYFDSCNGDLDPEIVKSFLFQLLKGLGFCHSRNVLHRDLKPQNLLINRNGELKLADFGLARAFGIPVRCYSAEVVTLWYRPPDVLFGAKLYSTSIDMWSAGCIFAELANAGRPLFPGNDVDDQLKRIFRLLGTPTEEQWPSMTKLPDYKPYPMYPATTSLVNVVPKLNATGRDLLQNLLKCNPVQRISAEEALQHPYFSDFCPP
CDK5/CDK5R1, sequence (Q15078 whole entry partner): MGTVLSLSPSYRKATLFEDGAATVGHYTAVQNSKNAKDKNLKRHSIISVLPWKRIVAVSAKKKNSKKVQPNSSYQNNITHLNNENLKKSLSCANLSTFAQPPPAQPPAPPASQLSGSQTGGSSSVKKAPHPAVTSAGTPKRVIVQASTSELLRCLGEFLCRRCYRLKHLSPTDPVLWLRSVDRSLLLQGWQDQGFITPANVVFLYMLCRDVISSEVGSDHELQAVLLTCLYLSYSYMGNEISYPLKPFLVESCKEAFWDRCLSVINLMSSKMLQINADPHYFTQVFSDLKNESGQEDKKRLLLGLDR

[5] = biological target: CDK6/Cyclin D1 (Homo sapiens, UniProt Q00534); test: NanoBRET live-cell target engagement, NanoLuc-CDK6/Cyclin D1 in HEK-293; assay type: binding; conditions: CDK6/D1; for IC50: read-out: IC50
[6] = biological target: CDK7 (Homo sapiens, UniProt P50613); test: NanoBRET live-cell target engagement, NanoLuc-CDK7 in HEK-293; assay type: binding; conditions: CDK7; for IC50: read-out: IC50
CDK7, sequence (P50613 whole entry): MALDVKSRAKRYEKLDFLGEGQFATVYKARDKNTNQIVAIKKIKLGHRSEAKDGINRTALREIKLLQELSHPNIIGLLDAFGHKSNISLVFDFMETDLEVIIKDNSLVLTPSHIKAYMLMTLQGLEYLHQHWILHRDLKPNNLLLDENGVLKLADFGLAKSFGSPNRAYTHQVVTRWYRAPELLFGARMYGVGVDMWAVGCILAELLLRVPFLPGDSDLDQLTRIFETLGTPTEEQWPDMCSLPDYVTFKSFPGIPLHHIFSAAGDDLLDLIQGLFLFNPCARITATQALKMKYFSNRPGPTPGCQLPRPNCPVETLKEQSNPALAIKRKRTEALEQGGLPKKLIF

[7] = biological target: CDK8/Cyclin C (Homo sapiens, UniProt P49336); test: NanoBRET live-cell target engagement, NanoLuc-CDK8/Cyclin C in HEK-293; assay type: binding; conditions: CDK8/C
[8] = biological target: T1, CDK11A/Cyclin L2 (Homo sapiens, UniProt Q9UQ88); test: NanoBRET live-cell target engagement, CDK11A-NanoLuc/Cyclin L2 in HEK-293; assay type: binding; conditions: CDK11a/L2; for IC50: read-out: IC50
T1 sequence (Q9UQ88 1-783): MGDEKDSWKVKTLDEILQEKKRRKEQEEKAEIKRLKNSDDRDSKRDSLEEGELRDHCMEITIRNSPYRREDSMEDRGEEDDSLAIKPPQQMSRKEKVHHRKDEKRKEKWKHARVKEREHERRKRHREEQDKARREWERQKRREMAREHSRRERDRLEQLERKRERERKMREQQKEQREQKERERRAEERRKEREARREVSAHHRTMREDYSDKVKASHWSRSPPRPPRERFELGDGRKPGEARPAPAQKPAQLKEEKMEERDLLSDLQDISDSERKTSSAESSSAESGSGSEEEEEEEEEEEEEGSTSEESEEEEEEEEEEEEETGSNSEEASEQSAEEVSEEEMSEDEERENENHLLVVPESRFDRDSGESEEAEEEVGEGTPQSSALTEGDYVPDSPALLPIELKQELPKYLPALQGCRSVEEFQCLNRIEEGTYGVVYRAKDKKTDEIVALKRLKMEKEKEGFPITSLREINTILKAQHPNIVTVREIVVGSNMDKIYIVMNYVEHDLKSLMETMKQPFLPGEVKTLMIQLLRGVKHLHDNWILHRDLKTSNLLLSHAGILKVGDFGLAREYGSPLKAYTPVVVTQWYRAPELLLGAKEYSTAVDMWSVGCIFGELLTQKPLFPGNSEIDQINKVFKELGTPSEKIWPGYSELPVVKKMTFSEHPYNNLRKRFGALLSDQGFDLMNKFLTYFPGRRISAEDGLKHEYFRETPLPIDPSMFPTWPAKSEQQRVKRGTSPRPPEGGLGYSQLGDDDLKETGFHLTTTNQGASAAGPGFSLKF

[9] = biological target: CDK11B/Cyclin L2 (Homo sapiens, UniProt P21127); test: NanoBRET live-cell target engagement, CDK11B-NanoLuc/Cyclin L2 in HEK-293; assay type: binding; conditions: CDK11b/L2; for IC50: read-out: IC50
CDK11B/Cyclin L2, sequence (P21127 1-782 isoform P21127-2): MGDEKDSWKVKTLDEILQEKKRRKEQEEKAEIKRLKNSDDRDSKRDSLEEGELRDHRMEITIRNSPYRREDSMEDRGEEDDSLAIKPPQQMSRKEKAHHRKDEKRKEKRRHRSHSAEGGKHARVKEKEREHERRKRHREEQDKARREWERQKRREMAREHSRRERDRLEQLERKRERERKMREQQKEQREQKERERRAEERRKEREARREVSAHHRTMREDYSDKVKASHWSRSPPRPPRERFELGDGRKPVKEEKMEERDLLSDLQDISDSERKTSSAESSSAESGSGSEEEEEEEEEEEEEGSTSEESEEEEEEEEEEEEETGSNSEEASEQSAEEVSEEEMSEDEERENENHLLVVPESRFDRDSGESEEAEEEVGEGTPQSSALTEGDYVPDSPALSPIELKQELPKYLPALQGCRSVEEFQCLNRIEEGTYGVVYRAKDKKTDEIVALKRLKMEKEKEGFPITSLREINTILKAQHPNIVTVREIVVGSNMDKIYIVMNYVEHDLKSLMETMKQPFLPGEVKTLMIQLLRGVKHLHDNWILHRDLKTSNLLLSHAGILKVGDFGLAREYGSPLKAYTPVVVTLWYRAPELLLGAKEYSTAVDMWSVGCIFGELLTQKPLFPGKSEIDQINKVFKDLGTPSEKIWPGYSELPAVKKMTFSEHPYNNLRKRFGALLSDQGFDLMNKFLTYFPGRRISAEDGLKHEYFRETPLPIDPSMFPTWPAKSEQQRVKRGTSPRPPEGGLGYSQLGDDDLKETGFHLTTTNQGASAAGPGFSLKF

[10] = biological target: CDK13/Cyclin K (Homo sapiens, UniProt Q14004); test: NanoBRET live-cell target engagement, CDK13-NanoLuc/Cyclin K in HEK-293; assay type: binding; conditions: CDK13/K
[11] = biological target: CDK14/Cyclin Y (Homo sapiens, UniProt O94921); test: NanoBRET live-cell target engagement, CDK14-NanoLuc/Cyclin Y in HEK-293; assay type: binding; conditions: CDK14/Y; for IC50: read-out: IC50
CDK14/Cyclin Y, sequence (O94921 whole entry): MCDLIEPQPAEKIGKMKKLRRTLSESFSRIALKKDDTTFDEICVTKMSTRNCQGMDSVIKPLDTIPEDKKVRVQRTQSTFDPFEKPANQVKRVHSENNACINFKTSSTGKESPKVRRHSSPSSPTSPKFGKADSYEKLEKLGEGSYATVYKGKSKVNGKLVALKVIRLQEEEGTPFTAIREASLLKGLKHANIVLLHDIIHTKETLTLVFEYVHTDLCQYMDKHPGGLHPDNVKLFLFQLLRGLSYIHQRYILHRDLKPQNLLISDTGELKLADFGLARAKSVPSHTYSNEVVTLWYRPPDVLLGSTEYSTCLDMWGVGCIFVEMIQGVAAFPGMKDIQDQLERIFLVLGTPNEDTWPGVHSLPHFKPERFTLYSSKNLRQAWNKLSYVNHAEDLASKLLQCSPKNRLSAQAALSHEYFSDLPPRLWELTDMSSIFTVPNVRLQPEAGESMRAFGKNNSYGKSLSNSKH
CDK14/Cyclin Y, sequence (Q8ND76 whole entry partner): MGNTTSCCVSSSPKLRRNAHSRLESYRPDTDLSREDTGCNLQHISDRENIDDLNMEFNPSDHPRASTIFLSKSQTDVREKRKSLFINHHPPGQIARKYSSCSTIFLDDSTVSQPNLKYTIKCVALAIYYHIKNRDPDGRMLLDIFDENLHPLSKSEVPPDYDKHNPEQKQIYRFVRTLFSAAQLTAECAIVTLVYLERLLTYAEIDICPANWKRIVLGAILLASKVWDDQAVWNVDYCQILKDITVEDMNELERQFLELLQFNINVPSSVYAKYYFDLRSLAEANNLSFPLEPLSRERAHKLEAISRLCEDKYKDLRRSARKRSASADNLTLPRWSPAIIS

[12] = biological target: CDK15/Cyclin Y (Homo sapiens, UniProt Q96Q40); test: NanoBRET live-cell target engagement, NanoLuc-CDK15/Cyclin Y in HEK-293; assay type: binding; conditions: CDK15/Y; for IC50: read-out: IC50
[13] = biological target: CDK16/Cyclin Y (Homo sapiens, UniProt Q00536); test: NanoBRET live-cell target engagement, CDK16-NanoLuc/Cyclin Y in HEK-293; assay type: binding; conditions: CDK16/Y; for IC50: read-out: IC50
[14] = biological target: CDK17/Cyclin Y (Homo sapiens, UniProt Q00537); test: NanoBRET live-cell target engagement, CDK17-NanoLuc/Cyclin Y in HEK-293; assay type: binding; conditions: CDK17/Y; for IC50: read-out: IC50
[15] = biological target: CDK18/Cyclin Y (Homo sapiens, UniProt Q07002); test: NanoBRET live-cell target engagement, CDK18-NanoLuc/Cyclin Y in HEK-293; assay type: binding; conditions: CDK18/Y; for IC50: read-out: IC50
[16] = biological target: CDK20/Cyclin H (Homo sapiens, UniProt Q8IZL9); test: NanoBRET live-cell target engagement, NanoLuc-CDK20/Cyclin H in HEK-293; assay type: binding; conditions: CDK20/H
[17] = biological target: CDK19/Cyclin C (Homo sapiens, UniProt Q9BWU1); test: NanoBRET live-cell target engagement, NanoLuc-CDK19/Cyclin C in HEK-293; conditions: CDK19/C
CDK19/Cyclin C, sequence (Q9BWU1 whole entry): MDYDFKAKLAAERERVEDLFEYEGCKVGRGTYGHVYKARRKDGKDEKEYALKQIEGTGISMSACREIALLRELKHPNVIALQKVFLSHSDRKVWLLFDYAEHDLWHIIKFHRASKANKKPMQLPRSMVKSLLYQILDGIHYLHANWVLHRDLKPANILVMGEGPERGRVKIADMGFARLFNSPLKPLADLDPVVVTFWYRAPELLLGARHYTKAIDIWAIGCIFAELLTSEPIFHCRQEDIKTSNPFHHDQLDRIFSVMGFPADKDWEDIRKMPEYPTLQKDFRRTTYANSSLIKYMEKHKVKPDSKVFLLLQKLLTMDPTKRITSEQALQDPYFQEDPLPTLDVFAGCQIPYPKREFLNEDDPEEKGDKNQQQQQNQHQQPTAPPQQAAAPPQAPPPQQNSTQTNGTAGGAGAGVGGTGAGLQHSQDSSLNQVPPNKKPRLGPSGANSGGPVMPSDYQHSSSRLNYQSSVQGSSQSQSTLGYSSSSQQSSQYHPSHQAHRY
CDK19/Cyclin C, sequence (P24863 whole entry partner): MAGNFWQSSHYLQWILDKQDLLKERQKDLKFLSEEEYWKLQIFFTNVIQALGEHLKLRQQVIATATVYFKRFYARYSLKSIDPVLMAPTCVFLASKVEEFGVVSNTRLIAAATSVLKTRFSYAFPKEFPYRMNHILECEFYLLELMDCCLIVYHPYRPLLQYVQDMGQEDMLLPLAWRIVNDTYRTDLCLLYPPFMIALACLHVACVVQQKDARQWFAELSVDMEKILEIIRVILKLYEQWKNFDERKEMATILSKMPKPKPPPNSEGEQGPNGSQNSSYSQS

[18] = biological target: CDK10/Cyclin L2 (Homo sapiens, UniProt Q15131); test: NanoBRET live-cell target engagement, CDK10-NanoLuc/Cyclin L2 in HEK-293; conditions: CDK10/L2

Structure (SMILES): CS(=O)(=O)N1CCC(NC(=O)c2[nH]ncc2NC(=O)c2c(Cl)cccc2Cl)CC1 [NVP-LCQ195]
- Inhibition at 10µM (%) ([1]; average): 92.5%
- IC50 ([1]; average (± SEM where n=3)): 83 nM
- Inhibition at 10µM (%) ([1]; experiment 1): 94.8%
- IC50 ([1]; experiment 1): 58 nM
- Inhibition at 10µM (%) ([1]; experiment 2): 90.2%
- IC50 ([1]; experiment 2): 108 nM
- Inhibition at 10µM (%) [2]: 99.5% and 98.9%
- Inhibition at 10µM (%) ([3]; average): 94.3%
- IC50 ([3]; average (± SEM where n=3)): 15 nM
- Inhibition at 10µM (%) ([3]; experiment 1): 100.8%
- IC50 ([3]; experiment 1): 19 nM
- Inhibition at 10µM (%) ([3]; experiment 2): 87.9%
- IC50 ([3]; experiment 2): 11 nM
- Inhibition at 10µM (%) ([4]; average): 93.1%
- IC50 ([4]; average (± SEM where n=3)): 31 nM
- Inhibition at 10µM (%) ([4]; experiment 1): 90.4%
- IC50 ([4]; experiment 1): 37 nM
- Inhibition at 10µM (%) ([4]; experiment 2): 95.7%
- IC50 ([4]; experiment 2): 25 nM
- Inhibition at 10µM (%) ([5]; average): 99.2%
- IC50 ([5]; average (± SEM where n=3)): 15 nM
- Inhibition at 10µM (%) ([5]; experiment 1): 98.6%
- IC50 ([5]; experiment 1): 18 nM
- Inhibition at 10µM (%) ([5]; experiment 2): 99.9%
- IC50 ([5]; experiment 2): 12 nM
- IC50 ([6]; average (± SEM where n=3)): 69 nM
- Inhibition at 10µM (%) ([6]; experiment 1): 86.7%
- IC50 ([6]; experiment 1): 68 nM
- Inhibition at 10µM (%) ([6]; experiment 2): 89.1%
- IC50 ([6]; experiment 2): 70 nM
- Inhibition at 10µM (%) ([7]; average): 31.8%
- Inhibition at 10µM (%) ([7]; experiment 1): 33.3%
- Inhibition at 10µM (%) ([7]; experiment 2): 30.3%
- Inhibition at 10µM (%) ([8]; average): 94.0%
- IC50 ([8]; average (± SEM where n=3)): 160 nM
- Inhibition at 10µM (%) ([8]; experiment 1): 93.9%
- IC50 ([8]; experiment 1): 225 nM
- Inhibition at 10µM (%) ([8]; experiment 2): 94.1%
- IC50 ([8]; experiment 2): 95 nM
- Inhibition at 10µM (%) ([9]; average): 94.8%
- IC50 ([9]; average (± SEM where n=3)): 37 nM
- Inhibition at 10µM (%) ([9]; experiment 1): 95.4%
- IC50 ([9]; experiment 1): 35 nM
- Inhibition at 10µM (%) ([9]; experiment 2): 94.2%
- IC50 ([9]; experiment 2): 39 nM
- Inhibition at 10µM (%) ([10]; average): 20.5%
- Inhibition at 10µM (%) ([10]; experiment 1): 29.4%
- Inhibition at 10µM (%) ([10]; experiment 2): 11.5%
- Inhibition at 10µM (%) ([11]; average): 90.1%
- IC50 ([11]; average (± SEM where n=3)): 470 nM
- Inhibition at 10µM (%) ([11]; experiment 1): 90.7%
- IC50 ([11]; experiment 1): 607 nM
- Inhibition at 10µM (%) ([11]; experiment 2): 89.6%
- IC50 ([11]; experiment 2): 330 nM
- Inhibition at 10µM (%) ([12]; average): 92.4%
- IC50 ([12]; average (± SEM where n=3)): 380 nM
- Inhibition at 10µM (%) ([12]; experiment 1): 93.0%
- IC50 ([12]; experiment 1): 531 nM
- Inhibition at 10µM (%) ([12]; experiment 2): 91.9%
- IC50 ([12]; experiment 2): 220 nM
- IC50 ([13]; average (± SEM where n=3)): 13 nM
- Inhibition at 10µM (%) ([13]; experiment 1): 92.7%
- IC50 ([13]; experiment 1): 11 nM
- Inhibition at 10µM (%) ([13]; experiment 2): 92.6%
- IC50 ([13]; experiment 2): 14 nM
- Inhibition at 10µM (%) ([14]; average): 92.4%
- IC50 ([14]; average (± SEM where n=3)): 11 nM
- Inhibition at 10µM (%) ([14]; experiment 1): 92.3%
- IC50 ([14]; experiment 1): 14 nM
- Inhibition at 10µM (%) ([14]; experiment 2): 92.4%
- IC50 ([14]; experiment 2): 7.7 nM
- Inhibition at 10µM (%) ([15]; average): 97.0%
- IC50 ([15]; average (± SEM where n=3)): 240 nM
- Inhibition at 10µM (%) ([15]; experiment 1): 93.5%
- IC50 ([15]; experiment 1): 310 nM
- Inhibition at 10µM (%) ([15]; experiment 2): 100.6%
- IC50 ([15]; experiment 2): 166 nM
- Inhibition at 10µM (%) ([16]; experiment 1): 26.0%
- Inhibition at 10µM (%) ([16]; experiment 2): 16.0%
- Inhibition at 10µM (%) ([17]; average): 37.8%
- Inhibition at 10µM (%) ([17]; experiment 1): 38.7%
- Inhibition at 10µM (%) ([17]; experiment 2): 37.0%
- Inhibition at 10µM (%) ([18]; average): 70.2%
- Inhibition at 10µM (%) ([18]; experiment 1): 74.4%
- Inhibition at 10µM (%) ([18]; experiment 2): 66.1%
